Values quoted from earlier work in patent publication US20220296560A1, “PHARMACEUTICAL COMPOSITION FOR ORAL ADMINISTRATION IN POWDER FORMULATION CONTAINING ANTIVIRAL AGENT” (DAE HWA PHARMA. CO., LTD., priority 2019, published 2022).
Like-named read-outs stand apart in the source and are kept apart here.

Conditions: in vivo

- bioavailability (inhaled or intranasal): 4-17%
- bioavailability (po): about 2%
SMILES: CC(=O)N[C@H]1[C@H]([C@H](O)[C@H](O)CO)OC(C(=O)O)=C[C@@H]1N=C(N)N [zanamivir, 5-(acetylamino)-4-{[amino(imino)methyl]amino}-2,6-anhydro-3,4,5-trideoxy-D-glycero-D-galacto-non-2-enonic acid]
